Assays:
[1] = biological target: Kelch domain of human KEAP1 (321-624 aa) (Homo sapiens (Human), UniProt Q14145); test: KEAP1 KELCH ThermoFluor binding assay; conditions: KEAP Kelch […], 1,8-ANS, pH 7.0, average of results obtained, read-out: Tf Kd;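 also: Ligand-induced melting temperature shift of E. coli-expressed KEAP1 Kelch protein, Kd estimated from concentration-response curves of ΔTm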
[2] = system: Glo-Response ARE-luc2P HEK293 cell line; test: ARE luciferase reporter cell-based assay; conditions: average of results obtained;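 also: luciferase signal tracks Nrf2 activation of the ARE once compounds disrupt KEAP1-Nrf2 binding, read with One-Glo reagent, DMSO serving as low control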

Chain of Kelch domain of human KEAP1 (321-624 aa) (Q14145 321-624): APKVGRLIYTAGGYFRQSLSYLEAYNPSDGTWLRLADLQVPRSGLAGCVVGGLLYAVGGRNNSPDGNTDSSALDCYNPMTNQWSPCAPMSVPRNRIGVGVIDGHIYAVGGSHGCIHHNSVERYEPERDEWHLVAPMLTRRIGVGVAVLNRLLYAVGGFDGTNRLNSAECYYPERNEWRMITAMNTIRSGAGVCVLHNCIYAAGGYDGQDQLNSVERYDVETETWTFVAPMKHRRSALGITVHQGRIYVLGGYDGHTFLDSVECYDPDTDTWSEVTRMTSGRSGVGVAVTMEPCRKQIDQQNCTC

SMILES	Kd [1] [nM]	EC50 ([2]; Homo sapiens, HEK293, 24 h) [nM]	EC50 ([2]; 24 hours) [nM]
Cc1ncc([C@@H](c2ccc3c(nnn3C3CC3)c2C)C(C)(C)C(=O)O)cc1CN1CC2(CCOCC2)Oc2ncccc2S1(=O)=O (single isomer, unassigned) [Example 45, (*R)-3-(1-Cyclopropyl-4-methyl-1H-benzo[d][1,2,3]triazol-5-yl)-3-(5-((1′,1′-dioxido-2,3,5,6-tetrahydrospiro[pyran-4,4′-pyrido[2,3-b][1,4,5]oxathiazepin]-2′(3′H)-yl)methyl)-6-methylpyridin-3-yl)-2,2-dimethylpropanoic Acid]	42600	6560	–
Cc1ccc([C@@H](CC(=O)O)c2ccn3c(C4CC4)nnc3c2C)cc1CN1C[C@H]2CCCN2c2ncccc2S1(=O)=O (single isomer, unassigned) [Example 169, (*R)-3-(3-Cyclopropyl-8-methyl-[1,2,4]triazolo[4,3-a]pyridin-7-yl)-3-(3-(((R)-5,5-dioxido-7a,8,9,10-tetrahydropyrido[2,3-f]pyrrolo[2,1-d][1,2,5]thiadiazepin-6(7H)-yl)methyl)-4-methylphenyl)propanoic Acid]	1.2	5910	–
Cc1ccc(C(CC(=O)O)c2ccn3c(C)nnc3c2)cc1CN1CC(C)(C)Oc2ccccc2S1(=O)=O (racemic) [Example 161, (R/S)-3-(3-((4,4-Dimethyl-1,1-dioxido-3,4-dihydro-2H-benzo[b][1,4,5]oxathiazepin-2-yl)methyl)-4-methylphenyl)-3-(3-methyl-[1,2,4]triazolo[4,3-a]pyridin-7-yl)propanoic Acid]	2.8	15900	–
Cc1ccc([C@H](c2ccc3c(nnn3C3CC3)c2C)C(C)(C)C(=O)O)cc1CN1CC2(CCNCC2)Oc2ncccc2S1(=O)=O (single isomer, unassigned) [Example 647, (*R)-3-(1-Cyclopropyl-4-methyl-1H-benzo[d][1,2,3]triazol-5-yl)-3-(3-((1′,1′-dioxidospiro[piperidine-4,4′-pyrido[2,3-b][1,4,5]oxathiazepin]-2′(3′H)-yl)methyl)-4-methylphenyl)-2,2-dimethylpropanoic Acid]	< 1	11.6	–
Cc1cc2cc(C(CC(=O)O)c3ccc(C)c(CN4C[C@H]5CCCCN5c5ncccc5S4(=O)=O)c3)n(C)c2nn1 (stereo in doubt) [Example 443, 3-(3,7-Dimethyl-7H-pyrrolo[2,3-c]pyridazin-6-yl)-3-(3-(((*R)-5,5-dioxido-7,7a,8,9,10,11-hexahydro-6H-dipyrido[2,1-d:2′,3′-f][1,2,5]thiadiazepin-6-yl)methyl)-4-methylphenyl)propanoic Acid]	< 1	1100	–
Cc1ccc([C@@H](c2ccn3c(C(F)(F)F)nnc3c2C)C(C)(C)C(=O)O)cc1CN1CC2(CCOCC2)Oc2nc(OCCN3CCCCC3)c(C)cc2S1(=O)=O (single isomer, unassigned) [Example 126, 2,2-Dimethyl-3-(4-methyl-3-((8′-methyl-1′,1′-dioxido3-(3-((7′-(((*S)-4-hydroxybutan-2-yl)amino)-8′-methyl-1′,1′-dioxido-7′-(2-(piperidin-1-yl)ethoxy)-2,3,5,6-tetrahydrospiro[pyran-4,4′-pyrido[2,3-b][1,4,5]oxathiazepin]-2′(3′H)-yl)methyl)phenyl)-3-(8-methyl-3-(trifluoromethyl)-[1,2,4]triazolo[4,3-a]pyridine-7-yl)propanoic Acid]	< 1	6	–
Cc1ccc([C@H](c2ccn3c(C(F)(F)F)nnc3c2C)C(C)(C)C(=O)O)cc1CN1CC2(CCNCC2)Oc2ncccc2S1(=O)=O (single isomer, unassigned) [Example 337, (*R)-3-(3-((1′,1′-Dioxidospiro[piperidine-4,4′-pyrido[2,3-b][1,4,5]oxathiazepin]-2′(3′H)-yl)methyl)-4-methylphenyl)-2,2-dimethyl-3-(8-methyl-3-(trifluoromethyl)-[1,2,4]triazolo[4,3-a]pyridin-7-yl)propanoic Acid]	> 10000	> 20	–
Cc1ccc([C@H](CC(=O)O)c2ccn3c(C(F)(F)F)nnc3c2C)cc1CN1CC2(CC2)N(C)c2ncccc2S1(=O)=O (single isomer, unassigned) [Example 184, (*S)-3-(4-Methyl-3-((5′-methyl-1′,1′-dioxido-5′H-spiro[cyclopropane-1,4′-pyrido[2,3-f][1,2,5]thiadiazepin]-2′(3′H)-yl)methyl)phenyl)-3-(8-methyl-3-(t*rifluoromethyl)-[1,2,4]triazolo[4,3-a]pyridin-7-yl)propanoic Acid]	1.4	130	–
Cc1ccc([C@H](CC(=O)O)c2ccc3c(nnn3C)c2C(F)F)cc1CN1CC2CCCN2c2ncccc2S1(=O)=O (single isomer, unassigned) [Example 73, (*R) 3-(4-(Difluoromethyl-1-methyl-1H-benzo[d][1,2,3]triazol-5-yl)-3-(3-(((R-5,5-dioxido-7a,8,9,10-tetrahydropyridi[2,3-f]pyrrolo[2,1-d][1,2,5]thiadiazepin-6(7H)-yl)methyl)-4-methylphenyl)propanoic Acid]	3	–	600
Cc1ccc([C@@H](CC(=O)O)c2ccn3c(C(F)F)nnc3c2C)cc1CN1C[C@@H]2CCCN2c2ncc(C#N)cc2S1(=O)=O (single isomer, unassigned) [Example 544, (*R)-3-(3-(((S)-3-Cyano-5,5-dioxido-7a,8,9,10-tetrahydropyrido[2,3-f]pyrrolo[2,1-d][1,2,5]thiadiazepin-6(7H)-yl)methyl)-4-methylphenyl)-3-(3-(difluoromethyl)-8-methyl-[1,2,4]triazolo[4,3-a]pyridin-7-yl)propanoic Acid]	< 1	278	–
CC[C@@H]1CN(Cc2cc(C(CC(=O)O)c3ccn4c(C)nnc4c3)ccc2C)S(=O)(=O)c2cccnc2O1 (mixture of isomers) [Example 162, (R/S)-3-(3-(((R)-4-Ethyl-1,1-dioxido-3,4-dihydro-2H-pyrido[2,3-b][1,4,5]oxathiazepin-2-yl)methyl)-4-methylphenyl)-3-(3-methyl-[1,2,4]triazolo[4,3-a]pyridin-7-yl)propanoic Acid]	< 1	2440	–

The next lines start with results.

Kd [1] [nM]	SMILES	EC50 ([2]; Homo sapiens, HEK293, 24 h) [nM]	EC50 ([2]; 24 hours) [nM]
< 1	Cc1ccc([C@@H](CC(=O)O)c2ccn3c(C(F)(F)F)nnc3c2C)nc1CN1C[C@H]2CCCCN2c2ncc(Cl)cc2S1(=O)=O (single isomer, unassigned) [Example 520, (*S)-3-(6-(((*R)-3-Chloro-5,5-dioxido-7,7a,8,9,10,11-hexahydro-6H-dipyrido[2,1-d:2′,3′-f][1,2,5]thiadiazepin-6-yl)methyl)-5-methylpyridin-2-yl)-3-(8-methyl-3-(trifluoromethyl)-[1,2,4]triazolo[4,3-a]pyridin-7-yl)propanoic Acid]	15.6	–
< 1	Cc1ccc([C@@H](CC(=O)O)c2ccn3c(C(F)F)nnc3c2C)cc1CN1CC2(COC2)Oc2ncccc2S1(=O)=O (single isomer, unassigned) [Example 471, (*R)-3-(3-(Difluoromethyl)-8-methyl-[1,2,4]triazolo[4,3-a]pyridin-7-yl)-3-(3-((1′,1′-dioxidospiro[oxetane-3,4′-pyrido[2,3-b][1,4,5]oxathiazepin]-2′(3′H)-yl)methyl)-4-methylphenyl)propanoic Acid]	2630	–
< 1	CCn1nnc2c(C)c([C@@H](CC(=O)O)c3ccc(C)c(CN4C[C@H]5CCCCN5c5ncccc5S4(=O)=O)n3)ccc21 (single isomer, unassigned) [Example 306, (*R)-3-(6-(((*R)-5,5-Dioxido-7,7a,8,9,10,11-hexahydro-6H-dipyrido[2,1-d:2′,3′-f][1,2,5]thiadiazepin-6-yl)methyl)-5-methylpyridin-2-yl)-3-(1-ethyl-4-methyl-1H-benzo[d][1,2,3]triazol-5-yl)propanoic Acid]	9.4	–
< 1	Cc1ccc(C(CC(=O)O)c2ccn3c(C(F)(F)F)nnc3c2C)nc1CN1CC2(CC2)Oc2ncccc2S1(=O)=O (racemic) [Example 481, (R/S)-3-(6-((1′,1′-Dioxidospiro[cyclopropane-1,4′-pyrido[2,3-b][1,4,5]oxathiazepin]-2′(3′H)-yl)methyl)-5-methylpyridin-2-yl)-3-(8-methyl-3-(trifluoromethyl)-[1,2,4]triazolo[4,3-a]pyridin-7-yl)propanoic Acid]	1290	–
< 1	Cc1ccc([C@@H](c2ccn3c(C(F)F)nnc3c2C)C(C)(C)C(=O)O)cc1CN1CC2(COC2)Oc2ncccc2S1(=O)=O (single isomer, unassigned) [Example 616, (*S)-3-(3-(difluoromethyl)-8-methyl-[1,2,4]triazolo[4,3-a]pyridine-7-yl)-3-(3-((1′,1′-dioxidospiro[oxetane-3,4′-pyrido[2,3-b][1,4,5]oxathiazepin]-2′(3′H)-yl)methyl)-4-methylphenyl)-2,2-dimethylpropanoic Acid]	2.14	–
< 1	Cc1ccc(C(c2ccn3c(C(F)(F)F)nnc3c2C)C(C)(C)C(=O)O)cc1CN1CC2(CCOCC2)Oc2nc(OCCCO)ccc2S1(=O)=O (stereo not drawn) [Example 49, 3-(3-((7′-(3-Hydroxypropoxy)-1′,1′-dioxido-2,3,5,6-tetrahydrospiro[pyran-4,4′-pyrido[2,3-b][1,4,5]oxathiazepin]-2′(3′H)-yl)methyl)-4-methylphenyl-2,2′-dimethyl-3-(8-methyl-3-trifluoromethyl)-[1,2,4]triazolo[4,3-a]pyridine-7-yl)propanoic Acid]	71.9	–
< 1	Cc1ccc([C@@H](c2ccn3c(C(F)(F)F)nnc3c2C)C(C)(C)C(=O)O)cc1CN1CC2(CC2)Oc2ncccc2S1(=O)=O (single isomer, unassigned) [Example 317, (*S)-3-(3-((1′,1′-Dioxidospiro[cyclopropane-1,4′-pyrido[2,3-b][1,4,5]oxathiazepin]-2′(3′H)-yl)methyl)-4-methylphenyl)-2,2-dimethyl-3-(8-methyl-3-(trifluoromethyl)-[1,2,4]triazolo[4,3-a]pyridin-7-yl)propanoic Acid]	1.9	–

Reference: patent US10947252B2, “Inhibitors of KEAP1-Nrf2 protein-protein interaction” (Janssen Pharmaceutica NV, priority 2018, dated 2021)
